This note sets out measurements from US9730937B2, “RAF kinase modulator compounds and methods of use thereof” (AMBIT BIOSCIENCES CORPORATION, priority 2008, dated 2017).

Where two headings read alike, the source gives them in different places.

Assay [1] deals with panel of 290 distinct kinases (321 in the larger panel), excluding mutant variants. Conditions: kinase selectivity score, class symbols.
Assay [2] deals with T1, wild type BRAF kinase (Homo sapiens (Human), UniProt P15056). To be noted: read-out: BRAF WT Kd, class symbols.
The target in a further assay is mutant BRAF kinase (Homo sapiens (Human), UniProt P15056, V600E). Conditions: read-out: BRAF V600E Kd, class symbols.
The next assay concerns the target RAF kinases (Homo sapiens (Human), UniProt P04049). To be noted: read-out: RAF1 Kd, class symbols.
Assay [3] has as its target T1, wild type BRAF kinase. The experiment in a line: biochemical.
The mark [4] stands for this setting: value marked * (larger kinase panel).

T1 sequence (P15056 whole entry): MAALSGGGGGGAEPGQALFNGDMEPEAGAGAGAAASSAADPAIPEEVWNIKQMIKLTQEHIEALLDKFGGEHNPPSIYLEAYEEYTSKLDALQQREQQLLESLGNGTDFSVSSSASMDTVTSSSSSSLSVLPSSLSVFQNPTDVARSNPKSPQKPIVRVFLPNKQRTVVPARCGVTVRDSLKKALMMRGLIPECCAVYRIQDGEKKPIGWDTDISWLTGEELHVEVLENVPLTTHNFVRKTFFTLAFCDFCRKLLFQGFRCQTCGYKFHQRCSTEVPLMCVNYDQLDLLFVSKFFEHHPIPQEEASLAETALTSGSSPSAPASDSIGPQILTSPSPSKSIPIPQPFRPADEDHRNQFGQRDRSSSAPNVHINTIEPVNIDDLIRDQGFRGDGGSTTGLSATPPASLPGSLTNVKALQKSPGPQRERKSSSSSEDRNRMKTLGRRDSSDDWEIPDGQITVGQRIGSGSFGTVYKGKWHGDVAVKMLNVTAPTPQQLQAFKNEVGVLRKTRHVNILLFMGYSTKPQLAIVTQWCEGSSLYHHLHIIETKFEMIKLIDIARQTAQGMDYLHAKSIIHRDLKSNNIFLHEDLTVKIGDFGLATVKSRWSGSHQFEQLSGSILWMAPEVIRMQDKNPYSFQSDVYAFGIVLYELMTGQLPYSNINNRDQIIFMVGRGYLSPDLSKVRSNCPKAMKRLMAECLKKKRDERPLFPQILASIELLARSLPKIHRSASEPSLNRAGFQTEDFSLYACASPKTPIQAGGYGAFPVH
Sequence of mutant BRAF kinase (P15056 whole entry V600E): as the sequence (P15056 whole entry) above, with V600E counted along it
Sequence of RAF kinases (P04049 whole entry): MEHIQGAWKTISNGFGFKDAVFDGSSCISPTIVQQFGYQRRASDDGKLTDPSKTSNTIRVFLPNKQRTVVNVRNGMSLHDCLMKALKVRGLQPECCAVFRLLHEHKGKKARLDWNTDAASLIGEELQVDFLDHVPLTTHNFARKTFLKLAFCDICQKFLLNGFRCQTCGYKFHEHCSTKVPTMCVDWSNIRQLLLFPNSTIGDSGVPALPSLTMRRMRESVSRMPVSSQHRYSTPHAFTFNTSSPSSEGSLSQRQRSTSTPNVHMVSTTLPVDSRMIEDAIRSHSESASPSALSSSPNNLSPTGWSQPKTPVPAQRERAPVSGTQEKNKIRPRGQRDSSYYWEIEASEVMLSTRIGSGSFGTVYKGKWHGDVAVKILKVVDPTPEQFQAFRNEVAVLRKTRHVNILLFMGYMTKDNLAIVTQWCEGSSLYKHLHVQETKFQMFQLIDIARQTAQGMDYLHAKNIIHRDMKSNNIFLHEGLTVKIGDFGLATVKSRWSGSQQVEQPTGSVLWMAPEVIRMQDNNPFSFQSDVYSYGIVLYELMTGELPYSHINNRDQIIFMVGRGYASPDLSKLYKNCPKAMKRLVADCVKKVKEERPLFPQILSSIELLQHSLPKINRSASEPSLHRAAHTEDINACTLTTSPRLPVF

Usually Kd stands for the equilibrium constant for the complex coming apart. Consider `COc1ccc(NC(=O)Nc2cccc(Oc3ncnc4cc(OC)c(OC)cc34)c2)cc1Cl` [Ex 180, 1-(3-chloro-4-methoxyphenyl)-3-(3-(6,7-dimethoxyquinazolin-4-yloxy)phenyl)urea], for which, in assay [1] (setting [4]), the S35 entry was “B* (0.10 < B ≦ 0.20)”. Besides, the Kd on wild type BRAF kinase [2], on mutant BRAF kinase and at RAF kinases was below 250 nM each time.

For `COc1cc2c(Oc3cccc(NC(=O)Nc4cc(C(C)(C)C)on4)c3)ncnc2cc1OC1CCN(CC(F)F)CC1` [Ex 105, 1-(5-tert-butylisoxazol-3-yl)-3-(3-{7-[1-(2,2-difluoroethyl)piperidin-4-yloxy]-6-methoxyquinazolin-4-yloxy}phenyl)urea], the S35 entry in assay [1] (setting [4]) was “C* (0.20 < C ≦ 0.40)”. Also, the Kd on wild type BRAF kinase [2], on mutant BRAF kinase and on RAF kinases was above 1000 nM each time.

In the case of `COc1cc2c(Oc3cccc(NC(=O)Nc4cc(C(C)(C)C)on4)c3)ncnc2cc1OC[C@H](O)CN1CCN(C)CC1` [Ex 100, (R)-1-(5-tert-butylisoxazol-3-yl)-3-(3-(7-(2-hydroxy-3-(4-methylpiperazin-1-yl)propoxy)-6-methoxyquinazolin-4-yloxy)phenyl)urea], in assay [1] (290 distinct kinases), the S35 result is reported as “D (D > 0.40)”. For the same compound, the Kd on wild type BRAF kinase [2], on mutant BRAF kinase and on RAF kinases was below 250 nM in each case.

As for `COc1cc2ncnc(Sc3cccc(NC(=O)Nc4cc(C(C)(C)C)nn4-c4ccccc4)c3)c2cc1OC` [Ex 154, 1-(3-tert-butyl-1-phenyl-1H-pyrazol-5-yl)-3-(3-(6,7-dimethoxyquinazolin-4-ylthio)phenyl)urea], the S35 entry in assay [1] (setting [4]) was “D* (D > 0.40)”. The Kd on wild type BRAF kinase [2], on mutant BRAF kinase and on RAF kinases was above 1000 nM in each case.

Consider `COc1cc2ncnc(Oc3cccc(NC(=O)Nc4cccc(C(F)(F)F)c4)c3)c2cc1OC` [Ex 181, 1-(3-(6,7-dimethoxyquinazolin-4-yloxy)phenyl)-3-(3-(trifluoromethyl)phenyl)urea], for which the S35 entry in assay [1] (setting [4]) was “C* (0.20 < C ≦ 0.40)”. Further, the Kd on wild type BRAF kinase [2], on mutant BRAF kinase and at RAF kinases was below 250 nM throughout.

Turning to `COc1cc2ncnc(Oc3cccc(NC(=O)Nc4cc(C(F)(F)F)nn4C)c3)c2cc1OC` [Ex 164, 1-[3-(6,7-dimethoxyquinazolin-4-yloxy)phenyl]-3-[1-methyl-3-(trifluoromethyl)-1H-pyrazol-5-yl]urea], the S35 entry in assay [1] (setting [4]) is given as “C* (0.20 < C ≦ 0.40)”. For the same compound, the Kd on wild type BRAF kinase [2], on mutant BRAF kinase and at RAF kinases was below 250 nM each time.

On to `COCCOc1cc2ncnc(Oc3cccc(NC(=O)Nc4ccc(OC)c(C(F)(F)F)c4)c3)c2cc1OC` [Ex 139, 1-(4-methoxy-3-(trifluoromethyl)phenyl)-3-(3-(6-methoxy-7-(2-methoxyethoxy)quinazolin-4-yloxy)phenyl)urea], for which, in assay [1] (setting [4]), the S35 entry is listed as “C* (0.20 < C ≦ 0.40)”. The Kd at wild type BRAF kinase [2], at mutant BRAF kinase and at RAF kinases was below 250 nM in each case.

`COc1cc2ncnc(Oc3cccc(NC(=O)Nc4cc(C(C)(C)F)on4)c3)c2cc1OC` [Ex 136, 1-(3-(6,7-dimethoxyquinazolin-4-yloxy)phenyl)-3-(5-(2-fluoropropan-2-yl)isoxazol-3-yl)urea]: in assay [1] (setting [4]), the S35 result was “C* (0.20 < C ≦ 0.40)”. In addition, the Kd at wild type BRAF kinase [2], at mutant BRAF kinase and at RAF kinases was below 250 nM in each case.

On to `COc1cc2ncnc(Oc3cccc(NC(=O)Nc4cc(C(C)(C)C)on4)c3)c2cc1O[C@H]1CCN(C)C1` [Ex 109, (S)-1-(5-tert-butylisoxazol-3-yl)-3-(3-(7-methoxy-6-(1-methylpyrrolidin-3-yloxy)quinazolin-4-yloxy)phenyl)urea], for which, in assay [1] (290 distinct kinases), the S35 entry was “D (D > 0.40)”. Further, the Kd was below 250 nM on mutant BRAF kinase, 250 to 500 nM on wild type BRAF kinase [3] and below 250 nM on RAF kinases.

With `COc1cc2nc(Cl)nc(Sc3cccc(NC(=O)Nc4cc(C(C)(C)C)on4)c3)c2cc1OC` [Ex 89, 1-(5-tert-butylisoxazol-3-yl)-3-(3-(2-chloro-6,7-dimethoxyquinazolin-4-ylthio)phenyl)urea], the S35 entry in assay [1] (290 distinct kinases) is given as “A (A ≦ 0.10)”. Also, the Kd at wild type BRAF kinase [2], at mutant BRAF kinase and on RAF kinases was above 1000 nM in each case.

Consider `COc1cc2ncnc(Oc3cccc(NC(=O)Nc4cc(C(F)(F)F)n(C)n4)c3)c2cc1OC` [Ex 165, 1-[3-(6,7-dimethoxyquinazolin-4-yloxy)phenyl]-3-[1-methyl-5-(trifluoromethyl)-1H-pyrazol-3-yl]urea], for which the S35 result in assay [1] (setting [4]) is given as “C* (0.20 < C ≦ 0.40)”. The dissociation constant Kd at wild type BRAF kinase [2], at mutant BRAF kinase and at RAF kinases was below 250 nM throughout.

As to `COc1cc2ncnc(Sc3cccc(NC(=O)Nc4cc(C(F)(F)F)nn4C)c3)c2cc1OC` [Ex 193, 1-[3-(6,7-dimethoxyquinazolin-4-ylthio)phenyl]-3-[1-methyl-3-(trifluoromethyl)-1H-pyrazol-5-yl]urea], in assay [1] (setting [4]), the S35 result is recorded as “D* (D > 0.40)”. The Kd at wild type BRAF kinase [2], at mutant BRAF kinase and on RAF kinases was below 250 nM throughout.

For `COCC(C)(C)c1cc(NC(=O)Nc2cccc(Oc3ncnc4cc(OC)c(OC)cc34)c2)on1` [Ex 128, 1-(3-(6,7-dimethoxyquinazolin-4-yloxy)phenyl)-3-(3-(1-methoxy-2-methylpropan-2-yl)isoxazol-5-yl)urea], the S35 result in assay [1] (setting [4]) is on record as “C* (0.20 < C ≦ 0.40)”. The Kd on wild type BRAF kinase [2] is above 1000 nM; at mutant BRAF kinase, below 250 nM; on RAF kinases it was above 1000 nM.

As to `COc1cc2ncnc(Oc3cccc(NC(=O)Nc4cc(C5CCCC5)on4)c3)c2cc1OC` [Ex 135, 1-(5-cyclopentylisoxazol-3-yl)-3-(3-(6,7-dimethoxyquinazolin-4-yloxy)phenyl)urea], the S35 entry in assay [1] (setting [4]) is “C* (0.20 < C ≦ 0.40)”. The Kd on wild type BRAF kinase [2], on mutant BRAF kinase and at RAF kinases was below 250 nM each time.

In the case of `COc1cc2ncnc(Sc3cccc(NC(=O)Nc4cc(C(C)C)on4)c3)c2cc1OC` [Ex 134, 1-(3-(6,7-dimethoxyquinazolin-4-ylthio)phenyl)-3-(5-isopropylisoxazol-3-yl)urea], in assay [1] (setting [4]), the S35 entry was “C* (0.20 < C ≦ 0.40)”. For the same compound, the Kd at wild type BRAF kinase [2], at mutant BRAF kinase and at RAF kinases was below 250 nM in each case.

Take `COc1cc2ncnc(Oc3cccc(NC(=O)Nc4cc(C(F)(F)F)ccn4)c3)c2cc1OC` [Ex 141, 1-(3-(6,7-dimethoxyquinazolin-4-yloxy)phenyl)-3-(4-(trifluoromethyl)pyridin-2-yl)urea]: in assay [1] (290 distinct kinases), the S35 result is on record as “C (0.20 < C ≦ 0.40)”. The Kd at wild type BRAF kinase [2], on mutant BRAF kinase and on RAF kinases was below 250 nM each time.

Take `COc1cc2ncnc(Sc3cccc(NC(=O)Nc4cc(C(C)(C)C)on4)c3)c2cc1OCCS(C)(=O)=O` [Ex 88, 1-(5-tert-butylisoxazol-3-yl)-3-(3-(7-methoxy-6-(2-(methylsulfonyl)ethoxy)quinazolin-4-ylthio)phenyl)urea]: the S35 entry in assay [1] (290 distinct kinases) is “C (0.20 < C ≦ 0.40)”. In addition, the Kd at wild type BRAF kinase [2], on mutant BRAF kinase and at RAF kinases was below 250 nM each time.

Regarding `COc1cc2ncnc(Oc3cccc(NC(=O)Nc4cc(C(C)(C)C)on4)c3)c2cc1OCCCN1CCOCC1` [Ex 22, 1-(5-tert-butylisoxazol-3-yl)-3-(3-(7-methoxy-6-(3-morpholinopropoxy)quinazolin-4-yloxy)phenyl)urea], the S35 entry in assay [1] (290 distinct kinases) is “D (D > 0.40)”. The Kd on wild type BRAF kinase [2], at mutant BRAF kinase and on RAF kinases was below 250 nM throughout.

`COc1cc2ncnc(Oc3cccc(NC(=O)Nc4cc(C5(C)CC5)on4)c3)c2cc1OC` [Ex 127, 1-(3-(6,7-dimethoxyquinazolin-4-yloxy)phenyl)-3-(5-(1-methylcyclopropyl)isoxazol-3-yl)urea]: the S35 result in assay [1] (290 distinct kinases) is “C (0.20 < C ≦ 0.40)”. Besides, the Kd on wild type BRAF kinase [2], on mutant BRAF kinase and at RAF kinases was below 250 nM each time.
